Test results from PubChem BioAssay AID1963842 (Molecular Pharmacology Branch, DTP, NCI, 2024).

Tested on: 677734-321-R-J1-PDC complex spheroid viability
Experiment: Anticancer human tumor 677734-321-R-J1-PDC patient-derived soft tissue sarcoma cell line growth inhibition [POLQ]
Details: for IC50: curve of first compound; for viability, T/C: stronger effect = lower value
Method in brief: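 Complex spheroid viability model combining PDC tumour cells with endothelial (HUVEC) and MSC stromal cells. Novobiocin, ART-558 or RP6685 were tested singly and in combination with standard and investigational anticancer drugs. Each was titrated in half-log steps from near clinical Cmax, or from 10 microM where Cmax was unknown.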

[1] = second compound 0.0316 µM, first compound 0.0316 µM
[2] = second compound 0.0316 µM, first compound 0.1 µM
[3] = second compound 0.0316 µM, first compound 0.316 µM
[4] = second compound 0.0316 µM, first compound 1 µM
[5] = second compound 0.0316 µM, first compound 3.16 µM
[6] = second compound 0.0316 µM, first compound 10 µM
[7] = second compound 0.1 µM, first compound 0.0316 µM
[8] = second compound 0.1 µM, first compound 0.1 µM
[9] = second compound 0.1 µM, first compound 0.316 µM
[10] = second compound 0.1 µM, first compound 1 µM
[11] = second compound 0.1 µM, first compound 3.16 µM
[12] = second compound 0.1 µM, first compound 10 µM
[13] = second compound 0.316 µM, first compound 0.0316 µM
[14] = second compound 0.316 µM, first compound 0.1 µM
[15] = second compound 0.316 µM, first compound 0.316 µM
[16] = second compound 0.316 µM, first compound 1 µM
[17] = second compound 0.316 µM, first compound 3.16 µM
[18] = second compound 0.316 µM, first compound 10 µM
[19] = second compound 1 µM, first compound 0.0316 µM
[20] = second compound 1 µM, first compound 0.1 µM
[21] = second compound 1 µM, first compound 0.316 µM
[22] = second compound 1 µM, first compound 1 µM
[23] = second compound 1 µM, first compound 3.16 µM
[24] = second compound 1 µM, first compound 10 µM
[25] = second compound 3.16 µM, first compound 0.0316 µM
[26] = second compound 3.16 µM, first compound 0.1 µM
[27] = second compound 3.16 µM, first compound 0.316 µM
[28] = second compound 3.16 µM, first compound 1 µM
[29] = second compound 3.16 µM, first compound 3.16 µM
[30] = second compound 3.16 µM, first compound 10 µM
[31] = second compound 10 µM, first compound 0.0316 µM
[32] = second compound 10 µM, first compound 0.1 µM
[33] = second compound 10 µM, first compound 0.316 µM
[34] = second compound 10 µM, first compound 1 µM
[35] = second compound 10 µM, first compound 3.16 µM
[36] = second compound 10 µM, first compound 10 µM
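Further: spheroids exposed to compounds for one week.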
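Wherever viability, T/C is given: 100% = vehicle DMSO treated spheroids.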

SMILES: O=C(Nc1ccc(O)c(NS(=O)(=O)c2ccc(F)cc2)c1)c1ccc(-c2ccccc2)cc1 + COC1C(OC(N)=O)C(O)C(Oc2ccc3c(O)c(NC(=O)c4ccc(O)c(CC=C(C)C)c4)c(=O)oc3c2C)OC1(C)C
- IC50 (second compound 0.0316 µM): 7220 nM
- IC50 (second compound 0.1 µM): 7580 nM
- IC50 (second compound 0.316 µM): 8780 nM
- IC50 (second compound 1 µM): 7480 nM
- IC50 (second compound 3.16 µM): 8180 nM
- IC50 (second compound 10 µM): 6870 nM
- viability, T/C [1]: 112%
- viability, T/C [2]: 100%
- viability, T/C [3]: 102%
- viability, T/C [4]: 101%
- viability, T/C [5]: 85.9%
- viability, T/C [6]: 35.6%
- viability, T/C [7]: 104%
- viability, T/C [8]: 106%
- viability, T/C [9]: 99.2%
- viability, T/C [10]: 101%
- viability, T/C [11]: 101%
- viability, T/C [12]: 33.8%
- viability, T/C [13]: 111%
- viability, T/C [14]: 99.9%
- viability, T/C [15]: 104%
- viability, T/C [16]: 106%
- viability, T/C [17]: 97.9%
- viability, T/C [18]: 43.8%
- viability, T/C [19]: 108%
- viability, T/C [20]: 109%
- viability, T/C [21]: 110%
- viability, T/C [22]: 101%
- viability, T/C [23]: 92.1%
- viability, T/C [24]: 35.8%
- viability, T/C [25]: 109%
- viability, T/C [26]: 101%
- viability, T/C [27]: 108%
- viability, T/C [28]: 103%
- viability, T/C [29]: 84.9%
- viability, T/C [30]: 42.7%
- viability, T/C [31]: 103%
- viability, T/C [32]: 108%
- viability, T/C [33]: 102%
- viability, T/C [34]: 100%
- viability, T/C [35]: 81.7%
- viability, T/C [36]: 34.6%

SMILES: CC(=O)O[C@H]1C(=O)[C@@]2(C)[C@H]([C@H](OC(=O)c3ccccc3)[C@]3(O)C[C@H](OC(=O)[C@H](O)[C@@H](NC(=O)c4ccccc4)c4ccccc4)C(C)=C1C3(C)C)[C@]1(OC(C)=O)CO[C@@H]1C[C@@H]2O + Cc1cccc(N(C)C(=O)C2C(O)CCN2c2nc(C)cc(C(F)(F)F)c2C#N)c1
- IC50 (second compound 0.0316 µM): < 9.49 nM
- IC50 (second compound 0.1 µM): < 9.49 nM
- IC50 (second compound 0.316 µM): < 9.49 nM
- IC50 (second compound 1 µM): < 9.49 nM
- IC50 (second compound 3.16 µM): < 9.49 nM
- IC50 (second compound 10 µM): < 9.49 nM
- viability, T/C (second compound 0.0316 µM, first compound 0.00949 µM): 21.8%
- viability, T/C (second compound 0.0316 µM, first compound 0.03 µM): 14.4%
- viability, T/C (second compound 0.0316 µM, first compound 0.0949 µM): 14.1%
- viability, T/C (second compound 0.0316 µM, first compound 0.3 µM): 12.6%
- viability, T/C (second compound 0.0316 µM, first compound 0.949 µM): 10.9%
- viability, T/C (second compound 0.0316 µM, first compound 3 µM): 12.8%
- viability, T/C (second compound 0.1 µM, first compound 0.00949 µM): 23.7%
- viability, T/C (second compound 0.1 µM, first compound 0.03 µM): 16.1%
- viability, T/C (second compound 0.1 µM, first compound 0.0949 µM): 13.6%
- viability, T/C (second compound 0.1 µM, first compound 0.3 µM): 13.3%
- viability, T/C (second compound 0.1 µM, first compound 0.949 µM): 13.5%
- viability, T/C (second compound 0.1 µM, first compound 3 µM): 15.6%
- viability, T/C (second compound 0.316 µM, first compound 0.00949 µM): 22.8%
- viability, T/C (second compound 0.316 µM, first compound 0.03 µM): 18.9%
- viability, T/C (second compound 0.316 µM, first compound 0.0949 µM): 12.4%
- viability, T/C (second compound 0.316 µM, first compound 0.3 µM): 10.3%
- viability, T/C (second compound 0.316 µM, first compound 0.949 µM): 12.4%
- viability, T/C (second compound 0.316 µM, first compound 3 µM): 13.9%
- viability, T/C (second compound 1 µM, first compound 0.00949 µM): 26%
- viability, T/C (second compound 1 µM, first compound 0.03 µM): 23.1%
- viability, T/C (second compound 1 µM, first compound 0.0949 µM): 14%
- viability, T/C (second compound 1 µM, first compound 0.3 µM): 11.4%
- viability, T/C (second compound 1 µM, first compound 0.949 µM): 9.6%
- viability, T/C (second compound 1 µM, first compound 3 µM): 9.4%
- viability, T/C (second compound 3.16 µM, first compound 0.00949 µM): 23.6%
- viability, T/C (second compound 3.16 µM, first compound 0.03 µM): 13.4%
- viability, T/C (second compound 3.16 µM, first compound 0.0949 µM): 12.2%
- viability, T/C (second compound 3.16 µM, first compound 0.3 µM): 12.8%
- viability, T/C (second compound 3.16 µM, first compound 0.949 µM): 12%
- viability, T/C (second compound 3.16 µM, first compound 3 µM): 14.6%
- viability, T/C (second compound 10 µM, first compound 0.00949 µM): 27.3%
- viability, T/C (second compound 10 µM, first compound 0.03 µM): 12.4%
- viability, T/C (second compound 10 µM, first compound 0.0949 µM): 12.2%
- viability, T/C (second compound 10 µM, first compound 0.3 µM): 14.5%
- viability, T/C (second compound 10 µM, first compound 0.949 µM): 11.3%
- viability, T/C (second compound 10 µM, first compound 3 µM): 11.4%

SMILES: COc1cccc2c1C(=O)c1c(O)c3c(c(O)c1C2=O)CC(O)(C(=O)CO)CC3OC1CC(N)C(O)C(C)O1 (stereo unspecified) + Cc1cccc(N(C)C(=O)C2C(O)CCN2c2nc(C)cc(C(F)(F)F)c2C#N)c1
- IC50 (second compound 0.0316 µM): 142 nM
- IC50 (second compound 0.1 µM): 123 nM
- IC50 (second compound 0.316 µM): 115 nM
- IC50 (second compound 1 µM): 83.6 nM
- IC50 (second compound 3.16 µM): 83.7 nM
- IC50 (second compound 10 µM): 79.5 nM
- viability, T/C [1]: 73.8%
- viability, T/C [2]: 68.2%
- viability, T/C [3]: 8.09%
- viability, T/C [4]: 0.74%
- viability, T/C [5]: 1.88%
- viability, T/C [6]: 3.67%
- viability, T/C [7]: 77.1%
- viability, T/C [8]: 59.3%
- viability, T/C [9]: 7.54%
- viability, T/C [10]: 0.78%
- viability, T/C [11]: 3.07%
- viability, T/C [12]: 5.78%
- viability, T/C [13]: 89.2%
- viability, T/C [14]: 55.7%
- viability, T/C [15]: 9.71%
- viability, T/C [16]: 0.66%
- viability, T/C [17]: 2.56%
- viability, T/C [18]: 5.49%
- viability, T/C [19]: 102%
- viability, T/C [20]: 40.4%
- viability, T/C [21]: 7.53%
- viability, T/C [22]: 0.6%
- viability, T/C [23]: 2.63%
- viability, T/C [24]: 4.09%
- viability, T/C [25]: 99.3%
- viability, T/C [26]: 41%
- viability, T/C [27]: 6.13%
- viability, T/C [28]: 0.63%
- viability, T/C [29]: 3.14%
- viability, T/C [30]: 4.04%
- viability, T/C [31]: 94%
- viability, T/C [32]: 39%
- viability, T/C [33]: 5.5%
- viability, T/C [34]: 1.83%
- viability, T/C [35]: 3.46%
- viability, T/C [36]: 3.24%
